Laboratory results reported in article PMC10951269, “5-HT_FAsTR: a versatile, label-free, high-throughput, fluorescence-based microplate assay to quantify serotonin transport and release” (Scientific Reports, 2024).
Where two headings read alike, the source gives them in different places.

Key:
hSERT [1] = target: T1, hSERT (Homo sapiens, UniProt P31645); assay type: cell-based; parameters: expressed in transfected cells; host or cells: HEK293MSR cells stably expressing cytoplasmic iSeroSnFR; details: 5 µM inhibitor, control experiment
T1 sequence (P31645 whole entry): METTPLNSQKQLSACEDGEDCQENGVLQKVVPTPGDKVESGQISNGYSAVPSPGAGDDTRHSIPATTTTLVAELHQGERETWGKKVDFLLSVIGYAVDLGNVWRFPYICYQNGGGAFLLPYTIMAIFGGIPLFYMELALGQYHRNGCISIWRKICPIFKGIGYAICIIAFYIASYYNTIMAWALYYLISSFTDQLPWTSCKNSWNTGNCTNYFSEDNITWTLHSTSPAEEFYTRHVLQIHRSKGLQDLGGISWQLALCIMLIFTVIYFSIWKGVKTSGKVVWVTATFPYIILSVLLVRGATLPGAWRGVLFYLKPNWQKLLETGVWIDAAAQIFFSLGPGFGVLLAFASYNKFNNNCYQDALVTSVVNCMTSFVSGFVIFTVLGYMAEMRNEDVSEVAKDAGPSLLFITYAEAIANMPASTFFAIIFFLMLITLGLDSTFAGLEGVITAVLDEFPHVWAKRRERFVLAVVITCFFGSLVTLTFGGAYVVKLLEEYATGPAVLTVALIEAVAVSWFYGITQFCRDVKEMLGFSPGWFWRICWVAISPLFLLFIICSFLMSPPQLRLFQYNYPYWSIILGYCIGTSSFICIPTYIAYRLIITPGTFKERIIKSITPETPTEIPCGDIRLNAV
Source text: Data were fitted in Graphpad Prism to the in-built model for Michaelis–Menten kinetics using robust non-linear regression to calculate Km and Vmax.

hOCT2 = target: T2, hOCT2 (Homo sapiens, UniProt O15244); assay: 5-HT_FAsTR fluorescence uptake inhibition assay, hOCT2; assay type: cell-based; details: corresponding to the pKi
T2 sequence (O15244 1-555): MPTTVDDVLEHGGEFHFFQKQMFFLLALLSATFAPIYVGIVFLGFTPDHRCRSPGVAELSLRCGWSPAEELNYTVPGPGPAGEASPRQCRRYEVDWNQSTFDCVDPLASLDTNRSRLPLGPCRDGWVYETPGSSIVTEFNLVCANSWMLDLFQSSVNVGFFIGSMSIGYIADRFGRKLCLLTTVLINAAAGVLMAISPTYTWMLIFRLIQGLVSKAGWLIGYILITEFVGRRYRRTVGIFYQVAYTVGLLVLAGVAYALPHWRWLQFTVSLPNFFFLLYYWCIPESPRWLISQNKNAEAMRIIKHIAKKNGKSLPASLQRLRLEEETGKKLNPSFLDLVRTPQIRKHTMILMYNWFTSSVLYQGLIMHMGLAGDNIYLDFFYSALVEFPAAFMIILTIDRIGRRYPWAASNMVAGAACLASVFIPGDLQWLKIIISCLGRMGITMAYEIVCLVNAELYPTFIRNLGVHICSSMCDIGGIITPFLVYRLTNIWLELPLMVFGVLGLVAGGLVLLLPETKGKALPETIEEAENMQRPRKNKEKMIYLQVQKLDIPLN
Protocol: (§1) For the uptake inhibition assay determining IC50 values, the pre-incubation solutions contained 12 increasing concentrations of an hSERT or OCT2 inhibitor. […] The change in fluorescence was determined 10 min after adding the incubation solution. […] The raw data was fitted to a non-linear fit in GraphPad Prism ([inhibitor] vs response (three parameters) for hSERT data and [inhibitor] vs response – variable slope (four parameters) for hOCT2 data) and normalized to the obtained top and bottom plateau as follows: rawdata-bottomplateau/topplateau-bottomplateau . The same non-linear fit of the normalized data was used to calculate logIC50 and IC50 values. IC50 values were converted to pKi values using the Cheng-Prusoff equation[33]. pKi=pIC50/1+[S]/Km

NCCc1c[nH]c2ccc(O)cc12 = assay: cells, lysate or membranes; details: other: HEK293MSR_iSeroSnFR cells with hSERT, 10 min, N = 7, pH 7.4
iSeroSnFR = assay: Dose-response of 5-HT binding to extracellular membrane-tethered iSeroSnFR; assay type: cell-based; details: HEK293MSR cells, not saturated at 10 mM 5-HT
Source text: Error bars represent SEM.
(2 pictures or pasted objects on this page, not shown here)

hSERT mutant I172M [2] = details: fluorescence assay; 10 µM 5-HT; N = 3
Protocol: as §1

hSERT [3] = target: T1, hSERT; assay: 5-HT_FAsTR fluorescence efflux assay
Protocol: The efflux inducing drug was added at time point 0 and a time window showing efflux in the linear range was chosen for further analysis. The fluorescence intensity measured in response to the drug was normalized to the mean fluorescence intensity measured 2.5 min, 5 min and 7.5 min before the addition of the drug. A simple linear regression was performed with GraphPad Prism for the time window showing efflux in the linear range and the slope of the linear decrease in fluorescence in response to the drug was plotted against increasing drug concentrations. A non-linear fit ([Inhibitor] vs. response (three parameters), GraphPad Prism) was used to calculate EC50 as well as the top and bottom plateau. The drug-induced efflux was calculated by subtracting the top plateau from the bottom plateau.

hSERT mutant I172M [4] = details: radiotracer assay; 10 µM [3H]5-HT; N = 3
Protocol: The uptake was terminated by washing the cells with ice-cold PBSCM, 50 µl Microscint (Perkin Elmer) was added and radioactivity was counted in a TopCounter microplate scintillation counter approximately one hour after microscint addition. The raw data was fitted to a non-linear fit in GraphPad Prism ([inhibitor] vs response (three parameters)) and normalized to the obtained top and bottom plateau as follows: rawdata-bottomplateau/topplateau-bottomplateau . The same non-linear fit of the normalized data was used to calculate logIC50 and IC50 values.

[5] = substrate: NCCc1c[nH]c2ccc(O)cc12; assay: cells, lysate or membranes; details: other: hOCT2-transfected cells; non-specific uptake determined with imipramine; N = 3; pH 7.4

## C[Se+](C)CCCN1c2ccccc2CCc2ccc(Cl)cc21 [MJ1-53]
hSERT [1]
  effect of blocking the serotonin transporter on 5-HT uptake (fluorescence intensity): abolishes 5-HT uptake
hOCT2
  Ki: 164 nM

## hSERT (Homo sapiens)
NCCc1c[nH]c2ccc(O)cc12; non-specific uptake determined with MJ1-53
  Km: 1.25 ± 0.48 µM
NCCc1c[nH]c2ccc(O)cc12; non-specific uptake determined with S-Citalopram
  Km: 1.79 ± 0.19 µM

## NCCc1c[nH]c2ccc(O)cc12 [5-HT, 5-hydroxytryptamine]
iSeroSnFR
  EC50: ≥ 1.52 mM

## CNC(C)Cc1ccc2c(c1)OCO2 (stereo not drawn) [MDMA]
hSERT mutant I172M [2]
  fold decrease in potency, hSERT I172M compared to wild type (IC50 ratio): did not show any change
hSERT [3]
  EC50: 6.22 ± 1.62 µM
hSERT [3]; hSERT not present (empty vector), preloaded with 5-HT, N = 3
  fluorescence change ± SEM (drug-induced efflux rate): 0.06 ± 0.01 %/minute
hSERT [3]; hSERT-transfected cells preloaded with 10 µM 5-HT, N = 6
  maximum fluorescence change ± SEM (drug-induced efflux rate): 0.66 ± 0.13 %/minute
hSERT [3]; hSERT-transfected cells vs background
  release of 5-HT relative to background levels from passive diffusion: at least 11 fold
hSERT mutant I172M [4]
  fold decrease in potency, hSERT I172M compared to wild type (IC50 ratio): did not show any change

B1: hOCT2 (Homo sapiens) (protein)
chain: MPTTVDDVLEHGGEFHFFQKQMFFLLALLSATFAPIYVGIVFLGFTPDHRCRSPGVAELSLRCGWSPAEELNYTVPGPGPAGEASPRQCRRYEVDWNQSTFDCVDPLASLDTNRSRLPLGPCRDGWVYETPGSSIVTEFNLVCANSWMLDLFQSSVNVGFFIGSMSIGYIADRFGRKLCLLTTVLINAAAGVLMAISPTYTWMLIFRLIQGLVSKAGWLIGYILITEFVGRRYRRTVGIFYQVAYTVGLLVLAGVAYALPHWRWLQFTVSLPNFFFLLYYWCIPESPRWLISQNKNAEAMRIIKHIAKKNGKSLPASLQRLRLEEETGKKLNPSFLDLVRTPQIRKHTMILMYNWFTSSVLYQGLIMHMGLAGDNIYLDFFYSALVEFPAAFMIILTIDRIGRRYPWAASNMVAGAACLASVFIPGDLQWLKIIISCLGRMGITMAYEIVCLVNAELYPTFIRNLGVHICSSMCDIGGIITPFLVYRLTNIWLELPLMVFGVLGLVAGGLVLLLPETKGKALPETIEEAENMQRPRKNKEKMIYLQVQKLDIPLN
[5]
  Km: 183.6 ± 65.18 µM
